≈ marks a conversion by molar mass, not a printed value.
Assays:
Assay type in all cases: functional
Streptococcus pneumoniae [1] = assay: Antimicrobial activity against Streptococcus pneumoniae serotype 9V ST 156 harboring ERY-resistant erm(B) or mef(E) gene by agar plate dilution method
Streptococcus pneumoniae [2] = assay: Antimicrobial activity against Streptococcus pneumoniae serotype 14 ST 156 harboring ERY-resistant mef(E) gene by agar plate dilution method
Streptococcus pneumoniae [3] = assay: Antimicrobial activity against Streptococcus pneumoniae serotype 19F ST 156 by agar plate dilution method
Streptococcus pneumoniae [4] = assay: Antimicrobial activity against Streptococcus pneumoniae serotype 14 ST 2918 by agar plate dilution method
Streptococcus pneumoniae [5] = assay: Antimicrobial activity against Streptococcus pneumoniae serotype 14 ST 3247 by agar plate dilution method
Streptococcus pneumoniae [6] = assay: Antimicrobial activity against Streptococcus pneumoniae serotype 19F ST 671 by agar plate dilution method
Streptococcus pneumoniae [7] = assay: Antimicrobial activity against Streptococcus pneumoniae serotype 19F ST 236 by agar plate dilution method
Streptococcus pneumoniae [8] = assay: Antimicrobial activity against Streptococcus pneumoniae serotype 19F ST 271 harboring ERY-resistant erm(B) and mef(E) gene by agar plate dilution method
Streptococcus pneumoniae [9] = assay: Antimicrobial activity against Streptococcus pneumoniae serotype 19F ST 2694 harboring ERY-resistant mef(E) gene by agar plate dilution method
Streptococcus pneumoniae [10] = assay: Antimicrobial activity against Streptococcus pneumoniae serotype 19F ST 3245 by agar plate dilution method
Streptococcus pneumoniae [11] = assay: Antimicrobial activity against Streptococcus pneumoniae serotype 23F ST 81 harboring ERY-resistant mef(E) gene by agar plate dilution method
Streptococcus pneumoniae [12] = assay: Antimicrobial activity against Streptococcus pneumoniae serotype 23F ST 3250 by agar plate dilution method
Streptococcus pneumoniae [13] = assay: Antimicrobial activity against Streptococcus pneumoniae serotype 14 ST 13 harboring ERY-resistant mef(E) gene by agar plate dilution method
Streptococcus pneumoniae [14] = assay: Antimicrobial activity against Streptococcus pneumoniae serotype 18C ST 496 harboring ERY-resistant erm(B) gene by agar plate dilution method
Streptococcus pneumoniae [15] = assay: Antimicrobial activity against Streptococcus pneumoniae serotype 4 ST 205 by agar plate dilution method
Streptococcus pneumoniae [16] = assay: Antimicrobial activity against Streptococcus pneumoniae serotype 6B ST 138 by agar plate dilution method
Streptococcus pneumoniae [17] = assay: Antimicrobial activity against Streptococcus pneumoniae serotype 10 ST 461 by agar plate dilution method
Streptococcus pneumoniae [18] = assay: Antimicrobial activity against Streptococcus pneumoniae serotype 17 ST 3248 by agar plate dilution method
Streptococcus pneumoniae [19] = assay: Antimicrobial activity against Streptococcus pneumoniae serotype 6B ST 3249 by agar plate dilution method
Streptococcus pneumoniae [20] = assay: Antimicrobial activity against Streptococcus pneumoniae serotype 14 ST 2306 harboring ERY-resistant erm(B) gene by agar plate dilution method
Streptococcus pneumoniae [21] = assay: Antimicrobial activity against Streptococcus pneumoniae serotype 14 ST 143 harboring ERY-resistant erm(B) gene by agar plate dilution method
Streptococcus pneumoniae [22] = assay: Antimicrobial activity against Streptococcus pneumoniae serotype 14 ST 2916 harboring ERY-resistant erm(B) gene by agar plate dilution method
Streptococcus pneumoniae [23] = assay: Antimicrobial activity against Streptococcus pneumoniae serotype 19F ST 2917 harboring ERY-resistant erm(B) and mef(E) gene by agar plate dilution method
Streptococcus pneumoniae [24] = assay: Antimicrobial activity against Streptococcus pneumoniae serotype 23F ST 961 harboring ERY-resistant erm(B) gene by agar plate dilution method
Streptococcus pneumoniae [25] = assay: Antimicrobial activity against Streptococcus pneumoniae serotype 6B ST 90 harboring ERY-resistant erm(B) gene by agar plate dilution method
Streptococcus pneumoniae [26] = assay: Antimicrobial activity against Streptococcus pneumoniae serotype 6B ST 3246 harboring ERY-resistant erm(B) gene by agar plate dilution method
Streptococcus pneumoniae [27] = assay: Antimicrobial activity against Streptococcus pneumoniae serotype 14 ST 2678 harboring ERY-resistant erm(B) gene by agar plate dilution method

How did the MIC (Streptococcus pneumoniae [1]) turn out when `CC[C@H]1OC(=O)[C@H](C)[C@@H](O[C@H]2C[C@@](C)(OC)[C@@H](O)[C@H](C)O2)[C@H](C)[C@@H](O[C@@H]2O[C@H](C)C[C@H](N(C)C)[C@H]2O)[C@](C)(O)C[C@@H](C)C(=O)[C@H](C)[C@@H](O)[C@]1(C)O` [ERYTHROMYCIN] was run?
Its MIC is over 0.063 µg/mL.

What about the MIC (Streptococcus pneumoniae [2]) of the same molecule?
Its MIC is 0.125 µg/mL (≈ 0.17 µM).

What about the MIC (Streptococcus pneumoniae [3]) of the same molecule?
The MIC was 0.125 µg/mL (≈ 0.17 µM).

And the MIC (Streptococcus pneumoniae [4])?
The MIC was over 128 µg/mL.

And the MIC (Streptococcus pneumoniae [5])?
Its MIC is over 128 µg/mL.

And the MIC (Streptococcus pneumoniae [6])?
The MIC was 32 µg/mL (≈ 43.6 µM).

And the MIC (Streptococcus pneumoniae [7])?
Its MIC is 8 µg/mL (≈ 10.9 µM).

What about the MIC (Streptococcus pneumoniae [8]) of the same molecule?
The MIC was over 128 µg/mL.

What about the MIC (Streptococcus pneumoniae [9]) of the same molecule?
Its MIC is 8 µg/mL (≈ 10.9 µM).

And the MIC (Streptococcus pneumoniae [10])?
The MIC was over 128 µg/mL.

And the MIC (Streptococcus pneumoniae [11])?
The MIC was 0.125 µg/mL (≈ 0.17 µM).

And the MIC (Streptococcus pneumoniae [12])?
Its MIC is over 128 µg/mL.

What about the MIC (Streptococcus pneumoniae [13]) of the same molecule?
Its MIC is 16 µg/mL (≈ 21.8 µM).

What about the MIC (Streptococcus pneumoniae [14]) of the same molecule?
Its MIC is over 128 µg/mL.

What about the MIC (Streptococcus pneumoniae [15]) of the same molecule?
Its MIC is 32 µg/mL (≈ 43.6 µM).

What about the MIC (Streptococcus pneumoniae [16]) of the same molecule?
Its MIC is 16 µg/mL (≈ 21.8 µM).

And the MIC (Streptococcus pneumoniae [17])?
Its MIC is over 128 µg/mL.

And the MIC (Streptococcus pneumoniae [18])?
Its MIC is over 128 µg/mL.

And the MIC (Streptococcus pneumoniae [19])?
The MIC was over 128 µg/mL.

Which results are given for `CC1(C)S[C@@H]2[C@H](NC(=O)Cc3ccccc3)C(=O)N2[C@H]1C(=O)O` [PENICILLIN G]?
MIC (Streptococcus pneumoniae [1]): 2 µg/mL (≈ 5.98 µM); MIC (Streptococcus pneumoniae [2]): 2 µg/mL (≈ 5.98 µM); MIC (Streptococcus pneumoniae [3]): 2 µg/mL (≈ 5.98 µM); MIC (Streptococcus pneumoniae [4]): 2 µg/mL (≈ 5.98 µM); MIC (Streptococcus pneumoniae [20]): 2 µg/mL (≈ 5.98 µM); MIC (Streptococcus pneumoniae [5]): 2 µg/mL (≈ 5.98 µM); MIC (Streptococcus pneumoniae [21]): 2 µg/mL (≈ 5.98 µM); MIC (Streptococcus pneumoniae [22]): 2 µg/mL (≈ 5.98 µM); MIC (Streptococcus pneumoniae [6]): 2 µg/mL (≈ 5.98 µM); MIC (Streptococcus pneumoniae [7]): 2 µg/mL (≈ 5.98 µM); MIC (Streptococcus pneumoniae [8]; read-out: MIC): 2 µg/mL (≈ 5.98 µM); MIC (Streptococcus pneumoniae [9]): 2 µg/mL (≈ 5.98 µM); MIC (Streptococcus pneumoniae [23]): 2 µg/mL (≈ 5.98 µM); MIC (Streptococcus pneumoniae [10]): 4 µg/mL (≈ 12 µM); MIC (Streptococcus pneumoniae [11]): 2 µg/mL (≈ 5.98 µM); MIC (Streptococcus pneumoniae [24]): 2 µg/mL (≈ 5.98 µM); MIC (Streptococcus pneumoniae [12]): 2 µg/mL (≈ 5.98 µM); MIC (Streptococcus pneumoniae [25]): 2 µg/mL (≈ 5.98 µM); MIC (Streptococcus pneumoniae [26]): 2 µg/mL (≈ 5.98 µM); MIC (Streptococcus pneumoniae [13]): 2 µg/mL (≈ 5.98 µM); MIC (Streptococcus pneumoniae [27]): 2 µg/mL (≈ 5.98 µM); MIC (Streptococcus pneumoniae [14]; read-out: MIC): 2 µg/mL (≈ 5.98 µM); MIC (Streptococcus pneumoniae [15]): 2 µg/mL (≈ 5.98 µM); MIC (Streptococcus pneumoniae [16]): 4 µg/mL (≈ 12 µM); MIC (Streptococcus pneumoniae [17]): 2 µg/mL (≈ 5.98 µM); MIC (Streptococcus pneumoniae [18]): 2 µg/mL (≈ 5.98 µM); MIC (Streptococcus pneumoniae [19]): 2 µg/mL (≈ 5.98 µM)

Which MIC (Streptococcus pneumoniae [1]) does the source give for `CN(C)[C@@H]1C(O)=C(C(N)=O)C(=O)[C@@]2(O)C(O)=C3C(=O)c4c(O)cccc4[C@@](C)(O)[C@H]3C[C@@H]12` [TETRACYCLINE] here?
The MIC was 0.25 µg/mL (≈ 0.563 µM).

What about the MIC (Streptococcus pneumoniae [2]) of the same molecule?
The MIC was 0.25 µg/mL (≈ 0.563 µM).

And the MIC (Streptococcus pneumoniae [3])?
Its MIC is 0.25 µg/mL (≈ 0.563 µM).

And the MIC (Streptococcus pneumoniae [4])?
Its MIC is 0.5 µg/mL (≈ 1.13 µM).

And the MIC (Streptococcus pneumoniae [21])?
Its MIC is 0.25 µg/mL (≈ 0.563 µM).

And the MIC (Streptococcus pneumoniae [6])?
Its MIC is 0.5 µg/mL (≈ 1.13 µM).

And the MIC (Streptococcus pneumoniae [8]; read-out: MIC)?
Its MIC is 16 µg/mL (≈ 36 µM).

And the MIC (Streptococcus pneumoniae [11])?
The MIC was 1 µg/mL (≈ 2.25 µM).

And the MIC (Streptococcus pneumoniae [24])?
Its MIC is 0.25 µg/mL (≈ 0.563 µM).

And the MIC (Streptococcus pneumoniae [12])?
Its MIC is 16 µg/mL (≈ 36 µM).

What about the MIC (Streptococcus pneumoniae [25]) of the same molecule?
The MIC was 0.5 µg/mL (≈ 1.13 µM).

And the MIC (Streptococcus pneumoniae [13])?
Its MIC is 0.25 µg/mL (≈ 0.563 µM).

What about the MIC (Streptococcus pneumoniae [14]; read-out: MIC) of the same molecule?
The MIC was 0.25 µg/mL (≈ 0.563 µM).

What about the MIC (Streptococcus pneumoniae [15]) of the same molecule?
The MIC was 1 µg/mL (≈ 2.25 µM).

What about the MIC (Streptococcus pneumoniae [16]) of the same molecule?
The MIC was 0.25 µg/mL (≈ 0.563 µM).

Source: ChEMBL document CHEMBL1649202, “Temporal trends of antimicrobial resistance and clonality of invasive Streptococcus pneumoniae isolates in Finland, 2002 to 2006” (2009)
